For this data set, the system named is CCRIS mutagenicity, Ames/micronucleus/aberration tests. In words: CCRIS mutagenicity studies.
The mark [1] stands for this setting: Test System: AMES SALMONELLA TYPHIMURIUM, Strain/Indicator: TA100, Metabolic Activation: NONE, Method: STANDARD PLATE.
[2] abbreviates: Test System: AMES SALMONELLA TYPHIMURIUM, Strain/Indicator: TA98, Metabolic Activation: NONE, Method: PREINCUBATION
[3] abbreviates: Test System: AMES SALMONELLA TYPHIMURIUM, Strain/Indicator: TA100, Metabolic Activation: NONE, Method: PREINCUBATION
The mark [4] stands for this setting: Test System: AMES SALMONELLA TYPHIMURIUM, Strain/Indicator: TA1535, Metabolic Activation: NONE, Method: PREINCUBATION
Setting [5] is: Test System: AMES SALMONELLA TYPHIMURIUM, Strain/Indicator: TA1537, Metabolic Activation: NONE, Method: PREINCUBATION

Each structure is given as a SMILES string. The source made the active and inactive calls. The rule behind the calls is not given here.

For the compound `O=S(=O)(Nc1cccc(Cl)c1)c1cccc2cccnc12`, the mutagenic call (Test System: AMES SALMONELLA TYPHIMURIUM, Strain/Indicator: TA98, Metabolic Activation: NONE, Method: STANDARD PLATE) was “inactive; negative”; the mutagenic call (Test System: AMES SALMONELLA TYPHIMURIUM, Strain/Indicator: TA98, Metabolic Activation: RAT, LIVER, S-9, AROCLOR 1254, Method: STANDARD PLATE) is “inactive; negative”; the mutagenic call under setting [1] was “inactive; negative”; the mutagenic call (Test System: AMES SALMONELLA TYPHIMURIUM, Strain/Indicator: TA100, Metabolic Activation: RAT, LIVER, S-9, AROCLOR 1254, Method: STANDARD PLATE) is “inactive; negative”; the mutagenic call (Test System: AMES SALMONELLA TYPHIMURIUM, Strain/Indicator: TA1535, Metabolic Activation: NONE, Method: STANDARD PLATE) is “inactive; negative”; the mutagenic call (Test System: AMES SALMONELLA TYPHIMURIUM, Strain/Indicator: TA1535, Metabolic Activation: RAT, LIVER, S-9, AROCLOR 1254, Method: STANDARD PLATE) was “inactive; negative”. The mutagenic call runs as follows: (Test System: AMES SALMONELLA TYPHIMURIUM, Strain/Indicator: TA1537, Metabolic Activation: NONE, Method: STANDARD PLATE) “inactive; negative”; (Test System: AMES SALMONELLA TYPHIMURIUM, Strain/Indicator: TA1537, Metabolic Activation: RAT, LIVER, S-9, AROCLOR 1254, Method: STANDARD PLATE) “inactive; negative”.
Turning to `ClC(COCC(Cl)C(Cl)(Cl)Cl)C(Cl)(Cl)Cl` (centres undefined), the mutagenic call (Test System: AMES SALMONELLA TYPHIMURIUM, Strain/Indicator: TA98, Metabolic Activation: NONE, Method: MICROSUSPENSION) is “inactive; negative”; the mutagenic call (Test System: AMES SALMONELLA TYPHIMURIUM, Strain/Indicator: TA98, Metabolic Activation: S-9, Method: MICROSUSPENSION) was “inactive; negative”; the mutagenic call (Test System: AMES SALMONELLA TYPHIMURIUM, Strain/Indicator: TA100, Metabolic Activation: NONE, Method: MICROSUSPENSION) was “active; positive”; the mutagenic call (Test System: AMES SALMONELLA TYPHIMURIUM, Strain/Indicator: TA100, Metabolic Activation: S-9, Method: MICROSUSPENSION) is “inactive; negative”.
Regarding `OCc1ccccc1`, the mutagenic call (End Point: IN VIVO MICRONUCLEUS, Test System: BONE MARROW POLYCHROMATIC ERYTHROCYTES, Species: MOUSE, Strain/Sex: DDY/MALE, Route: IP) is “inactive; negative”; the mutagenic call (Test System: AMES SALMONELLA TYPHIMURIUM, Strain/Indicator: TA97, Metabolic Activation: NONE, Method: PREINCUBATION) was “inactive; negative”; the mutagenic call (Test System: AMES SALMONELLA TYPHIMURIUM, Strain/Indicator: TA97, Metabolic Activation: RAT, LIVER, S-9, AROCLOR 1254, Method: PREINCUBATION) was “inactive; negative”; the mutagenic call (Test System: AMES SALMONELLA TYPHIMURIUM, Strain/Indicator: TA98, Metabolic Activation: HAMSTER, LIVER, S-9, AROCLOR 1254, Method: PREINCUBATION) was “inactive; negative”; the mutagenic call under setting [2] is “inactive; negative”; the mutagenic call (Test System: AMES SALMONELLA TYPHIMURIUM, Strain/Indicator: TA98, Metabolic Activation: RAT, LIVER, S-9, AROCLOR 1254, Method: PREINCUBATION) is “inactive; negative”. Moreover, the mutagenic call runs as follows: (Test System: AMES SALMONELLA TYPHIMURIUM, Strain/Indicator: TA100, Metabolic Activation: HAMSTER, LIVER, S-9, AROCLOR 1254, Method: PREINCUBATION) “inactive; negative”; under setting [3], “inactive; negative”; under setting [1], “inactive; negative”; (Test System: AMES SALMONELLA TYPHIMURIUM, Strain/Indicator: TA100, Metabolic Activation: RAT, LIVER, S-9, AROCLOR 1254, Method: PREINCUBATION) “inactive; negative”; (Test System: AMES SALMONELLA TYPHIMURIUM, Strain/Indicator: TA102, Metabolic Activation: NONE, Method: PREINCUBATION) “inactive; negative”; (Test System: AMES SALMONELLA TYPHIMURIUM, Strain/Indicator: TA102, Metabolic Activation: RAT, LIVER, S-9, AROCLOR 1254, Method: PREINCUBATION) “inactive; negative”. In addition, the mutagenic call is, setting by setting: (Test System: AMES SALMONELLA TYPHIMURIUM, Strain/Indicator: TA1535, Metabolic Activation: HAMSTER, LIVER, S-9, AROCLOR 1254, Method: PREINCUBATION) “inactive; negative”; under setting [4], “inactive; negative”; (Test System: AMES SALMONELLA TYPHIMURIUM, Strain/Indicator: TA1535, Metabolic Activation: RAT, LIVER, S-9, AROCLOR 1254, Method: PREINCUBATION) “inactive; negative”; (Test System: AMES SALMONELLA TYPHIMURIUM, Strain/Indicator: TA1537, Metabolic Activation: HAMSTER, LIVER, S-9, AROCLOR 1254, Method: PREINCUBATION) “inactive; negative”; under setting [5], “inactive; negative”; (Test System: AMES SALMONELLA TYPHIMURIUM, Strain/Indicator: TA1537, Metabolic Activation: RAT, LIVER, S-9, AROCLOR 1254, Method: PREINCUBATION) “inactive; negative”. Further, the mutagenic call is, setting by setting: (Test System: Ames Salmonella typhimurium, Strain/Indicator: TA98, Metabolic Activation: None, Method: Direct plate incorporation) “inactive; negative”; (Test System: Ames Salmonella typhimurium, Strain/Indicator: TA98, Metabolic Activation: Rat, liver, S-9, Aroclor 1254, Method: Direct plate incorporation) “inactive; negative”; (Test System: Ames Salmonella typhimurium, Strain/Indicator: TA100, Metabolic Activation: None, Method: Direct plate incorporation) “inactive; negative”; (Test System: Ames Salmonella typhimurium, Strain/Indicator: TA100, Metabolic Activation: Rat, liver, S-9, Aroclor 1254, Method: Direct plate incorporation) “inactive; negative”; (Test System: MOUSE LYMPHOMA, Strain/Indicator: L5178Y (TK+/TK-), Metabolic Activation: RAT, LIVER, S-9, AROCLOR 1254, Method: SUSPENSION/PLATE) “inactive; negative”.
On to `CC(C)(C)Br`, for which the mutagenic call by setting is: (Test System: AMES SALMONELLA TYPHIMURIUM, Strain/Indicator: TA100, Metabolic Activation: NONE, Method: DESICCATOR) “active; positive”; (Test System: AMES SALMONELLA TYPHIMURIUM, Strain/Indicator: TA100, Metabolic Activation: RAT, LIVER, S-9, AROCLOR 1254, Method: DESICCATOR) “active; positive”.
With `CCCCCCCCOP(=O)(OCCCCCCCC)OCCCCCCCC`, the mutagenic call runs as follows: (Test System: AMES SALMONELLA TYPHIMURIUM, Strain/Indicator: TA98, Metabolic Activation: HAMSTER, LIVER, S-9, AROCLOR 1254 (10%), Method: PREINCUBATION) “inactive; negative”; under setting [2], “inactive; negative”; (Test System: AMES SALMONELLA TYPHIMURIUM, Strain/Indicator: TA98, Metabolic Activation: RAT, LIVER, S-9, AROCLOR 1254 (10%), Method: PREINCUBATION) “inactive; negative”; (Test System: AMES SALMONELLA TYPHIMURIUM, Strain/Indicator: TA100, Metabolic Activation: HAMSTER, LIVER, S-9, AROCLOR 1254 (10%), Method: PREINCUBATION) “inactive; negative”; under setting [3], “inactive; negative”; (Test System: AMES SALMONELLA TYPHIMURIUM, Strain/Indicator: TA100, Metabolic Activation: RAT, LIVER, S-9, AROCLOR 1254 (10%), Method: PREINCUBATION) “inactive; negative”. Moreover, the mutagenic call is “inactive; negative” (Test System: AMES SALMONELLA TYPHIMURIUM, Strain/Indicator: TA1535, Metabolic Activation: HAMSTER, LIVER, S-9, AROCLOR 1254 (10%), Method: PREINCUBATION); “inactive; negative” under setting [4]; “inactive; negative” (Test System: AMES SALMONELLA TYPHIMURIUM, Strain/Indicator: TA1535, Metabolic Activation: RAT, LIVER, S-9, AROCLOR 1254 (10%), Method: PREINCUBATION); “inactive; negative” (Test System: AMES SALMONELLA TYPHIMURIUM, Strain/Indicator: TA1537, Metabolic Activation: HAMSTER, LIVER, S-9, AROCLOR 1254 (10%), Method: PREINCUBATION); “inactive; negative” under setting [5]; “inactive; negative” (Test System: AMES SALMONELLA TYPHIMURIUM, Strain/Indicator: TA1537, Metabolic Activation: RAT, LIVER, S-9, AROCLOR 1254 (10%), Method: PREINCUBATION).

The values are drawn from PubChem BioAssay AID1259407 (Chemical Carcinogenesis Research Information System (CCRIS), 2018).
